According to US9682940B2, “Indazole derivatives useful as CB-1 inverse agonists” (Janssen Pharmaceutica NV, priority 2015, dated 2017):

Assays:
[1] = target: Human CB2R (Cannabanoid receptor 2) (Homo sapiens (Human), UniProt P34972); test: CB-2 in vitro cAMP (HTRF) assay in HEK-293 cells; type: cell-based; conditions: HEK-293 cells stably transfected with human CB2R, 250 nM Forskolin, mean where tested more than once, read-out: CB-2 (HEK_cAMP) EC50
Procedure, shortened: (§1)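 HEK-293 cells stably expressing human CB1 or CB2 plated overnight, then tested in HBSS/5 mM HEPES/0.1% BSA with 0.5 mM IBMX and forskolin (1.5 μM working dilution). Intracellular cAMP quantified by competitive HTRF immunoassay (d2-cAMP, cryptate anti-cAMP) against a cAMP standard curve; compounds as 1/3 serial dilutions from 10 mM DMSO stocks.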

[2] = target: Human CB1R (Cannabanoid receptor 1) (Homo sapiens (Human), UniProt P21554); test: CB-1 in vitro cAMP (HTRF) assay in HEK-293 cells; type: cell-based; conditions: HEK-293 cells stably transfected with human CB1R, 250 nM Forskolin, mean where tested more than once, read-out: CB-1 (HEK_cAMP) EC50
Sequence of Human CB1R (Cannabanoid receptor 1) (P21554 whole entry): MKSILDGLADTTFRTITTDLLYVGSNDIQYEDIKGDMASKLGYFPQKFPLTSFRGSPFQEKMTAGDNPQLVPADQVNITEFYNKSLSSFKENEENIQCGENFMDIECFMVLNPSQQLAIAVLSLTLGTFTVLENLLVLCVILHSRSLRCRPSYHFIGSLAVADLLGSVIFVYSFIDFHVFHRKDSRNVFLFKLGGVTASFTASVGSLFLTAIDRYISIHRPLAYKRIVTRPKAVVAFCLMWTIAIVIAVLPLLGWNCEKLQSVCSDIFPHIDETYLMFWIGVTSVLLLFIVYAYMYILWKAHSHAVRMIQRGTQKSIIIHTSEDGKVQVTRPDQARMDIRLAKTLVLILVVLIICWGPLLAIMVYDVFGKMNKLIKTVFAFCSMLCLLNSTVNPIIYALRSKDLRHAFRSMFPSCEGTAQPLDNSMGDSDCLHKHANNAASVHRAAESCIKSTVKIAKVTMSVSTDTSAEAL
Procedure, shortened: as §1

Sequence of Human CB2R (Cannabanoid receptor 2) (P34972 whole entry): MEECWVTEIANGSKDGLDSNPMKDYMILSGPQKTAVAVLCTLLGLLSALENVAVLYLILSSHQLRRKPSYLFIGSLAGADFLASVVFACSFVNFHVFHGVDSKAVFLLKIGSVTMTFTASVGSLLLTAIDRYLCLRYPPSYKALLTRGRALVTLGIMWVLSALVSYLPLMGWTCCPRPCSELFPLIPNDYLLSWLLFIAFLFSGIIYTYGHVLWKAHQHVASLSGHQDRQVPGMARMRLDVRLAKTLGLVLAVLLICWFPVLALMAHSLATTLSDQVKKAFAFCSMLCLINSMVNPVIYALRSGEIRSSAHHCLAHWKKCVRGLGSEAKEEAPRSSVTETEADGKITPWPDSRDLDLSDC

EC50 [1] [nM]	EC50 [2] [nM]	SMILES
> 10000	1220	O=C(O)c1cccc(S(=O)(=O)N2CCC(Nc3n[nH]c4ccc(C(c5ccc(Cl)cc5)c5ccc(Cl)cc5)cc34)CC2)c1 [Compound 128]
> 10000	65	NC(=O)c1cccc(S(=O)(=O)N2CCC(c3nn(C4CC4)c4ccc(C(c5ccc(Cl)cc5)c5ccc(Cl)cc5)cc34)CC2)c1 [Compound 94]
> 10000	65	COC(=O)c1cccc(S(=O)(=O)N2CCC(c3n[nH]c4ccc(C(c5ccc(Cl)cc5)c5ccc(Cl)cc5)cc34)CC2)c1 [Compound 60]
> 10000	9	CNC(=O)c1cc(S(=O)(=O)N2CCC(c3c4cc(C(c5ccc(Cl)cc5)c5ccc(Cl)cc5)ccc4nn3C3CC3)CC2)ccc1Cl [Compound 170, 5-(4-(5-(bis(4-chlorophenyl)methyl)-2-cyclopropyl-2H-indazol-3-yl)piperidin-1-ylsulfonyl)-2-chloro-N-methylbenzamide]
> 10000	134	NC(=O)c1ccc(S(=O)(=O)N2CCC(c3n[nH]c4ccc(C(c5ccc(Cl)cc5)c5ccc(Cl)cc5)cc34)CC2)cc1 [Compound 28]
6930	11	NC(=O)c1ccc(C(c2ccc(Cl)cc2)c2ccc3[nH]nc(C4CCN(S(=O)(=O)C(F)(F)F)CC4)c3c2)cn1 (stereo not drawn) [Compound 253]
> 10000	15	O=S(=O)(c1ccc(O)cc1)N1CCC(Nc2n[nH]c3ccc(C(c4ccc(Cl)cc4)c4ccc(Cl)cc4)cc23)CC1 [Compound 130]
> 10000	18	O=S(=O)(N1CCC(c2nn(-c3ccc(OC(F)(F)F)cc3)c3ccc(C(c4ccc(Cl)cc4)c4ccc(Cl)cc4)cc23)CC1)C(F)(F)F [Compound 49]
> 10000	208	O=C(OCc1ccccc1)N1CCC(c2n[nH]c3ccc(C(c4ccc(Cl)cc4)c4ccc(Cl)cc4)cc23)CC1 [Compound 265]
> 10000	3550	O=C(O)c1ccc([C@H](c2ccc(Cl)cc2)c2ccc3[nH]nc(N4CCN(S(=O)(=O)C(F)(F)F)CC4)c3c2)cc1 [Compound 233]

SMILES	EC50 [1] [nM]	EC50 [2] [nM]
NC(=O)c1csc(CN2CCC(c3c4cc(C(c5ccc(Cl)cc5)c5ccc(Cl)cc5)ccc4nn3C3CC3)CC2)c1 [Compound 237, 5-((4-(5-(bis(4-chlorophenyl)methyl)-2-cyclopropyl-2H-indazol-3-yl)piperidin-1-yl)methyl)thiophene-3-carboxamide]	> 10000	5
O=C(O)c1cccc(CN2CCC(c3nn(C4CC4)c4ccc(C(c5ccc(F)cc5)c5ccc(Cl)cc5)cc34)CC2)c1 (stereo not drawn) [Compound 246]	> 10000	29
